Source: patent US11485701B2, “Insect repellent compounds and compositions, and methods thereof” (Iowa State University Research Foundation, Inc., priority 2016, dated 2022)
Where two headings read alike, the source gives them in different places.

Legend:
[1] = test system: Northern house mosquitoes (Culex pipiens); assay: Long-term spatial repellency, static air repellency chamber, filter papers air-dried 5 hours; assay type: in vivo; settings: Culex pipiens, 1 mL of 0.5% solution in acetone, air-dried 5 hours
Outline: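 Adult female Culex pipiens, 5–7 days post-emergence, held at 27 °C, 80% RH and 16:8 light:dark, about 20 per replicate in a 9 × 60 cm glass static-air chamber. Filter paper treated with 0.5% compound in acetone and air-dried 5 h is placed at one end; acetone-only papers are the control. Percentage spatial repellency is scored from mosquito distribution at 15–150 min, 4 replicates.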

[2] = test system: female Aedes aegypti (Orlando strain, 1952); assay: Minimum effective dosage testing, human skin (treated cloth patch); assay type: in vivo
Experimental: The test mosquitoes were female Aedes aegypti (Orlando strain, 1952) from the colony maintained at United States Department of Agriculture-Agricultural Research Service-Center for Medical, Agricultural and Veterinary Entomology (USDA-ARS-CMAVE) in Gainesville, Fla. Pupae were obtained from the colony and newly emerged mosquitoes were maintained on 10% sugar water and kept in laboratory cages at an ambient temperature of 28±1° C. and RH of 35-60%. Host seeking behavior was pre-selected in nulliparous female mosquitoes aged 6-10 days, indicated by flight upwind towards a potential host, from stock cages using a hand-draw box and trapped in a collection trap.
After 500 (±10%) females were collected in the trap, they were transferred to a test cage (approximately 59,000 cm^3 with dimensions 45×37.5×35 cm) and allowed to acclimatize for 17.5 (±2.5) min before testing was initiated. Just prior to the experiment, the pieces of treated cloth are removed from the vials and stapled onto card stock tabs (5×3 cm). Each piece of the cards and the assembly were hung on a drying rack using masking tape for 3-5 min. Participants in the study used latex gloves to pull a nylon stocking over their arm. A Velcro™-sealed vinyl sleeve was then placed over the forearm. […] The purpose of the nylon stocking was to produce a barrier between the dried cloth and the skin, thereby avoiding direct contact of chemical to skin. The dried cloth assembly was affixed over the opening in the sleeve and held in place with masking tape. Participants then inserted their arm with the sleeve and patch into a screened cage that contained female Ae. Aegypti mosquitoes. Tests were conducted on each control or treated patch for 1 min. A control patch (acetone solvent only, then dried) was tested prior to the start of experiments and evaluation of the same untreated control patch after every 10 tests. If 5 landings were not received on the control patch in 30 s, then tests were discontinued for 60 min. At the conclusion of testing the control patch was tested again. If five landings were not received within 30 s, the data for the replicate was discarded. When testing a patch treated with a candidate repellent, if approximately 1% or 5 mosquito bites were received during this one minute test, this compound was considered to have failed, i.e., was not repellent at that concentration. If a treated cloth patch received 0-4 bites within a minute, then it was considered as passed, i.e., repellent at that concentration of the test compound. The median concentration patch was tested in the first round and treated patches were then tested successively at higher or lower concentrations depending upon whether the previous patch failed or passed, respectively.
The time interval between each tested patch was <90 seconds until 10 successive tests had been conducted. If appreciable, mortality had occurred during testing, the number of knocked down mosquitoes are estimated and additional female mosquitoes are added to the cage to keep the available mosquitoes at approximately 500. The estimate of the MED was the lowest concentration that passed for each candidate. Observed MED values for each candidate compound were averaged across participants and reported as a mean MED±standard error.

[3] = treated cloth patch, 1 min test, high dose 1.5 mg/cm^2

Structure (SMILES): CC(C)=CCCC(C)CC(=O)OCC(C)O (stereo not shown) [Compound 2144, 2-hydroxypropyl citronellate]
- pest or weed control at 0.5 % ([1]; 0.25 h, 15 min, read-out: Long-term Percentage repellency 15 min): 12.5%
- pest or weed control at 0.5 % ([1]; 1.5 h, 90 min, read-out: Long-term Percentage repellency 90 min): 20%
- pest or weed control at 0.5 % ([1]; 2.5 h, 150 min, read-out: Long-term Percentage repellency 150 min): 35%
- Minimum effective dosage [2]: 0.055 mg/cm²
- Proportion to DEET ([2]; average MED relative to DEET): 2.053
- Minimum effective dosage testing, result in words ([2]; in vivo): performed similarly to DEET
- Minimum Effective Dosage, Average ([2]; mean across subjects): 0.039 mg/cm^2
- Minimum Effective Dosage, Subject 1 [2, 3]: 0.047 mg/cm^2
- Minimum Effective Dosage, Subject 2 [2, 3]: 0.047 mg/cm^2
- Minimum Effective Dosage, Subject 3 [2, 3]: 0.023 mg/cm^2
